Laboratory results reported in ChEMBL document CHEMBL1146110, “QSAR study on topically acting sulfonamides incorporating GABA moieties: a molecular connectivity approach” (Bioorg Med Chem Lett, 2006).

Columns and labels:
Carbonic anhydrase 4 = biological target: T1, Carbonic anhydrase 4 (Bos taurus, UniProt Q95323)
T1 sequence (Q95323 whole entry): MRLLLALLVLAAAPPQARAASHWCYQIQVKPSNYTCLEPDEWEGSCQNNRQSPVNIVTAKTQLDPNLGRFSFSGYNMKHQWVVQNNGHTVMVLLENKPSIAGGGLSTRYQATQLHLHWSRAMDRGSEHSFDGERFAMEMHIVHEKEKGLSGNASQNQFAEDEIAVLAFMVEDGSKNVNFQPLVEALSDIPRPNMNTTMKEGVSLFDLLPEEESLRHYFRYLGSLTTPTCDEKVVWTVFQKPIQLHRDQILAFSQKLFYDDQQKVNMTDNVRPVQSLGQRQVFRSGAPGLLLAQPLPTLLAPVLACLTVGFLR

Carbonic anhydrase 1 = Carbonic anhydrase 1 (Homo sapiens, UniProt P00915)
Carbonic anhydrase 1, sequence (P00915 whole entry): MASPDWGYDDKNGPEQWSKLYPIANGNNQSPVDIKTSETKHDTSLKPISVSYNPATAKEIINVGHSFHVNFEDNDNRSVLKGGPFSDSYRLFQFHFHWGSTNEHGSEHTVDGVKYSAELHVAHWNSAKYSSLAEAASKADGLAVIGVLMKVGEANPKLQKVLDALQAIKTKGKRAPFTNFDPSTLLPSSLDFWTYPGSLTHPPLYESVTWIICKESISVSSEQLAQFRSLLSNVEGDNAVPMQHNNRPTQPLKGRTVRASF

| Ki (Carbonic anhydrase 4) | Ki (Carbonic anhydrase 1) | Structure (SMILES) |
| --- | --- | --- |
| 8 nM | 9 nM | Cn1nc(S(N)(=O)=O)s/c1=N/S(=O)(=O)c1ccc(N)cc1 |
| 60 nM | 520 nM | NCCCC(=O)Nc1ccc(S(N)(=O)=O)cc1Br |
| 164 nM | 15200 nM | NCCCC(=O)Nc1ccc(S(N)(=O)=O)cc1 |
| 69 nM |  | NCCCC(=O)NCc1ccc(S(N)(=O)=O)cc1 |
| 75 nM | 63 nM | NCCCC(=O)Nc1ccc(S(=O)(=O)Nc2ccc(S(N)(=O)=O)cc2)cc1 |
| 38 nM | 530 nM | NCCCC(=O)Nc1ccc(S(N)(=O)=O)cc1F |
| 180 nM | 1750 nM | NCCCC(=O)OCc1ccc(S(N)(=O)=O)cc1 |
| 32 nM | 56 nM | CCN(C(=O)CCCN)C1CC(C)S(=O)(=O)c2sc(S(N)(=O)=O)cc21 (stereo not drawn) |
| 305 nM | 22500 nM | NCCCC(=O)NNc1ccc(S(N)(=O)=O)cc1 |
| 215 nM | 17200 nM | NCCCC(=O)Nc1cccc(S(N)(=O)=O)c1 |
| 42 nM | 310 nM | Cn1nc(S(N)(=O)=O)s/c1=N\C(=O)CCCN |
| 50 nM | 51 nM | NCCCC(=O)Nc1nccc(Nc2ccc(S(N)(=O)=O)cc2)n1 |
|  | 15 nM | Cn1nc(S(N)(=O)=O)s/c1=N/S(=O)(=O)c1ccc(NC(=O)CCCN)cc1 |
| 15 nM | 24 nM | NCCCC(=O)NCCC(=O)Nc1nnc(S(N)(=O)=O)s1 |
| 50 nM | 450 nM | NCCCC(=O)Nc1c(S(N)(=O)=O)cc(S(N)(=O)=O)c(Cl)c1Cl |
| 12 nM | 15 nM | NCCCC(=O)Oc1ccc2nc(S(N)(=O)=O)sc2c1 |
| 11 nM | 10 nM | NCCCC(=O)OCCOc1ccc2nc(S(N)(=O)=O)sc2c1 |
| 43 nM | 300 nM | NCCCC(=O)Nc1nnc(S(N)(=O)=O)s1 |
| 56 nM | 500 nM | NCCCC(=O)Nc1ccc(S(N)(=O)=O)cc1I |
| 243 nM | 20000 nM | NCCCC(=O)Nc1ccccc1S(N)(=O)=O |
| 50 nM | 350 nM | NCCCC(=O)Nc1cc(Cl)c(S(N)(=O)=O)cc1S(N)(=O)=O |
| 12 nM | 14 nM | NCCCC(=O)Nc1ccc2nc(S(N)(=O)=O)sc2c1 |
| 63 nM | 560 nM | NCCCC(=O)Nc1ccc(S(N)(=O)=O)cc1Cl |
| 67 nM | 61 nM | NCCCC(=O)Nc1ccc(S(=O)(=O)Nc2cccc(S(N)(=O)=O)c2)cc1 |
| 62 nM |  | NCCCC(=O)NCCc1ccc(S(N)(=O)=O)cc1 |
| 5 nM |  | NS(=O)(=O)c1ccc(CCO)cc1 |
